The results in this text go back to the Kinase Knowledgebase extract (Sharma et al. 2016).

The assay deals with MAPK14 (human) (UniProt Q16539). As to the kind of experiment: Assessment of MAPK14 Kinase Activity.
MAPK14 (human), sequence (Q16539 whole entry, looked up): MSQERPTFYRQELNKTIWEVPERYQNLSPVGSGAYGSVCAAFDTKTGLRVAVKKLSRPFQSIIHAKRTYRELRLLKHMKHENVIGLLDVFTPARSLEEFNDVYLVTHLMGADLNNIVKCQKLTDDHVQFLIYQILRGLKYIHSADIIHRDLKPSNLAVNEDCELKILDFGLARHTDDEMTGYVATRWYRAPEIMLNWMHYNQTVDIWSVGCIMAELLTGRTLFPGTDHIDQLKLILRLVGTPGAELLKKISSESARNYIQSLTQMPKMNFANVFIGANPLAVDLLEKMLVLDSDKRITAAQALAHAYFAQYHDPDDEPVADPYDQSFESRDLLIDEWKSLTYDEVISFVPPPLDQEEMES

A word on the IC50: it is the concentration that inhibits the measured activity by half. Low values mean higher potency, high ones lower potency. `CCOC(=O)c1sc2c(ccc(=O)n2-c2ccccc2)c1NC(=O)c1ccccc1` registered a concentration for half-maximal inhibition (IC50) not above 1000 nM.

`NC(=O)c1sc2c(ccc(=O)n2-c2ccccc2)c1Sc1ccccc1` showed an IC50 not above 1000 nM.

Compound `CCOC(=O)c1sc2c(ccc(=O)n2-c2ccccc2)c1C(O)c1ccccc1` (centres undefined) yielded an IC50 not above 1000 nM.

In turn, `CCOC(=O)c1sc2c(ccc(=O)n2-c2ccccc2)c1NNc1ccc(C)cc1` came in with a half-maximal inhibitory concentration (IC50) not above 1000 nM.

Regarding `N#Cc1sc2c(ccc(=O)n2-c2ccccc2)c1C(O)c1ccccc1` (centres undefined), the IC50 is not above 1000 nM.

For the compound `CCOC(=O)c1sc2c(ccc(=O)n2-c2ccccc2)c1C(O)c1cccc(C)c1` (centres undefined), the IC50 was not above 1000 nM.

On to `CCOC(=O)c1sc2c(ccc(=O)n2-c2ccccc2)c1NC(=O)c1ccc(N)cc1`, for which the IC50 is not above 1000 nM.

The compound `CCOC(=O)c1sc2c(ccc(=O)n2-c2ccccc2)c1Sc1cccc(C)c1` showed a 50% inhibitory concentration (IC50) not above 1000 nM.

For the compound `CCOC(=O)c1sc2c(ccc(=O)n2-c2ccccc2)c1Sc1ccccc1`, the IC50 is not above 1000 nM.

`CCOC(=O)c1sc2c(ccc(=O)n2-c2ccccc2)c1NCc1ccccc1` had a half-maximal inhibitory concentration (IC50) not above 1000 nM.

`CCOC(=O)c1sc2c(ccc(=O)n2-c2ccccc2)c1NS(=O)(=O)c1ccccc1`: the IC50 was not above 1000 nM.

As to `N#Cc1sc2c(ccc(=O)n2-c2ccccc2)c1NCc1ccccc1`, the IC50 was not above 1000 nM.

As to `CCOC(=O)c1sc2c(ccc(=O)n2CC2CC2)c1C(O)c1ccccc1` (centres undefined), the 50% inhibitory concentration (IC50) is not above 1000 nM.

Consider `CCOC(=O)c1sc2c(ccc(=O)n2-c2ccccc2)c1C(O)c1cccc(Cl)c1` (centres undefined), for which the IC50 was not above 1000 nM.

The compound `CCOC(=O)c1sc2c(ccc(=O)n2-c2ccccc2)c1Oc1ccccc1` gave a concentration for half-maximal inhibition (IC50) not above 1000 nM.

In turn, `CCOC(=O)c1sc2c(ccc(=O)n2-c2ccccc2)c1NCc1ccccn1` displayed an IC50 not above 1000 nM.

As to `Cc1cccc(C(O)c2c(C#N)sc3c2ccc(=O)n3-c2ccccc2)c1` (centres undefined), the 50% inhibitory concentration (IC50) is not above 1000 nM.

`CCOC(=O)c1sc2c(ccc(=O)n2-c2ccccc2)c1N(C)Cc1ccccc1` returned an IC50 not above 1000 nM.

Turning to `CCOC(=O)c1sc2c(ccc(=O)n2-c2ccccc2)c1NCc1c(F)cccc1F`, the IC50 was not above 1000 nM.

In the case of `CCOC(=O)c1sc2c(ccc(=O)n2-c2ccccc2)c1Cc1ccccc1`, the IC50 is not above 1000 nM.

The compound `CCOC(=O)c1sc2c(ccc(=O)n2-c2ccccc2)c1NC(C)c1ccccc1` (centres undefined) displayed an IC50 not above 1000 nM.

Turning to `CCOC(=O)c1sc2c(ccc(=O)n2-c2ccccc2)c1CCc1ccccc1`, the 50% inhibitory concentration (IC50) was not above 1000 nM.

As for `CCOC(=O)c1sc2c(ccc(=O)n2-c2ccccc2)c1S(=O)(=O)Nc1ccccc1`, the IC50 is not above 1000 nM.

As to `CCOC(=O)c1sc2c(ccc(=O)n2-c2ccccc2)c1C(O)c1cccc(C)n1` (centres undefined), the IC50 was not above 1000 nM.
